Values of other authors in article PMC8508678, “Novel P2X7 Antagonist Ameliorates the Early Phase of ALS Disease and Decreases Inflammation and Autophagy in SOD1-G93A Mouse Model” (International Journal of Molecular Sciences, 2021).
Where two headings read alike, the source gives them in different places.

Experiments:
SOD1-G93A mice [1] = test system: SOD1-G93A mice; parameters: key to Motor behavior / Survival: The symbol ↑ refers to upregulation; ↓ to downregulation; = indicates no change with respect to the vehicle-treated SOD1-G93A mice
SOD1-G93A mice [2] = test system: SOD1-G93A mice; parameters: key to NF-κB / NOX2 / P2X7 / ARG1 / CD68 / GFAP / LC3B-II: The symbol ↑ refers to upregulation; ↓ to downregulation; = indicates no change with respect to the vehicle-treated SOD1-G93A mice
SOD1-G93A mice [3] = test system: SOD1-G93A mice; parameters: key to Motor Neuron loss: The symbol ↑ refers to upregulation; ↓ to downregulation; = indicates no change with respect to the vehicle-treated SOD1-G93A mice
[4] = SOD1-G93A mice, vs vehicle ref 31
[5] = SOD1-G93A mice, vs vehicle ref 28, 29
[6] = ALS mice, four times per week starting at post-natal day 60 ref 41

## C[C@H](N=C(NC#N)Nc1cccc2ncccc12)c1ccccc1 [A804598]
SOD1-G93A mice [1]; SOD1-G93A mice ref 31
  amelioration of disease progression: failed
SOD1-G93A mice [1]; [4]
  Motor behavior: =
  Survival: =
SOD1-G93A mice [2]; SOD1-G93A mice ref 31
  P2X7 expression levels in the spinal cord: failed to affect
  autophagic substrate p62 accumulating in vivo: decreases
  motor neuron loss or astrogliosis and microgliosis in the spinal cord: neither A804598 nor AXX13 treatments affected
SOD1-G93A mice [2]; [4]
  ARG1: =
  CD68: =
  GFAP: =
  LC3B-II: =
  NF-κB: =
  NOX2: =
  P2X7: =
SOD1-G93A mice [2]; SOD1-G93A mice, only this inflammatory marker affected ref 31
  IL-1β mRNA expression: downregulated
SOD1-G93A mice [3]; [4]
  Motor Neuron loss: =

## CCOc1ccc(Nc2ccc(/C(=C3C=C/C(=[N+](/CC)Cc4cccc(S(=O)(=O)[O-])c4)C=C/3C)c3ccc(N(CC)Cc4cccc(S(=O)(=O)O)c4)cc3C)cc2)cc1 [BBG, brilliant blue G]
SOD1-G93A mice [1]; ALS mice, modest improvement in general conditions and motor performance ref 29
  disease onset: induces a delay of disease onset
SOD1-G93A mice [1]; [5]
  Survival: =
SOD1-G93A mice [2]; SOD1-G93A mice ref 29
  microgliosis: reduces
SOD1-G93A mice [2]; [5]
  GFAP: =
  P2X7: =
SOD1-G93A mice [3]; SOD1-G93A mice ref 29
  motor neuron survival in the lumbar spinal cord: enhances

## O=C(NCC1(N2CCN(c3ccccc3)CC2)CCOCC1)c1cccnc1Sc1ccccc1 [JNJ-47965567]
SOD1-G93A mice [1]; [6]
  disease onset, body weight loss and motor parameters: able to delay disease onset, reduce body weight loss, and improve the motor parameters
  survival or motor neuron number: without affecting
SOD1-G93A mice [1]; SOD1-G93A mice, three times per week from the early symptomatic phase ref 32
  survival, disease progression, molecular and cellular parameters of ALS: totally failed
